# System: Crude diglycosidase
# Experiment: Examination of pH in the conversion into isoflavone aglycons by diglycosidase using soybean materials
# Assay type: biochemical, Penicillium multicolor IAM7153
# Conditions: for Decomposition efficiency of glycitin family in roasted soy flour / Decomposition efficiency of glycitin family in soymilk: 55° C.
# Method in brief: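 HPLC readout: isoflavone glycosides vs aglycons. Substrates: 50 mg soy material (roasted flour, soymilk, defatted bean, concentrated protein), pH 2–11 (HCl/NaOH). Crude diglycosidase solution 1.88 AU/mL, matched pH; 55° C; quenched with ethanol at 0/1/3/6 h; centrifuged 15,000 rpm, 4° C, 10 min.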
# [1] = pH6.6, heat treatment of enzyme: no, reaction time 0 h
# [2] = pH6.6, heat treatment of enzyme: no, reaction time 1 h
# [3] = pH6.6, heat treatment of enzyme: no, reaction time 3 h
# [4] = pH6.6, heat treatment of enzyme: no, reaction time 6 h
# [5] = pH6.6, heat treatment of enzyme: yes, reaction time 6 h
smiles,measurement,setting,value
COc1cc2c(=O)c(-c3ccc(O)cc3)coc2cc1O[C@@H]1O[C@H](CO)[C@@H](O)[C@H](O)[C@H]1O [glycitin],Decomposition efficiency of glycitin family in concentrated soybean protein,"pH1.6, heat treatment of enzyme: no, reaction time 0 h",52.3%
same,Decomposition efficiency of glycitin family in concentrated soybean protein,"pH1.6, heat treatment of enzyme: no, reaction time 1 h",52.9%
same,Decomposition efficiency of glycitin family in concentrated soybean protein,"pH1.6, heat treatment of enzyme: no, reaction time 3 h",54.3%
same,Decomposition efficiency of glycitin family in concentrated soybean protein,"pH1.6, heat treatment of enzyme: no, reaction time 6 h",56.1%
same,Decomposition efficiency of glycitin family in concentrated soybean protein,"pH1.6, heat treatment of enzyme: yes, reaction time 6 h",57.9%
same,Decomposition efficiency of glycitin family in roasted soy flour,"pH2, heat treatment of enzyme no, reaction time 0 h",56.8
same,Decomposition efficiency of glycitin family in roasted soy flour,"pH2, heat treatment of enzyme no, reaction time 1 h",56.6
same,Decomposition efficiency of glycitin family in roasted soy flour,"pH2, heat treatment of enzyme no, reaction time 3 h",56.3
same,Decomposition efficiency of glycitin family in roasted soy flour,"pH2, heat treatment of enzyme no, reaction time 6 h",54.4
same,Decomposition efficiency of glycitin family in roasted soy flour,"pH2, heat treatment of enzyme yes, reaction time 6 h",54.4
same,Decomposition efficiency of glycitin family in soymilk,"pH2.3, heat treatment of enzyme no, reaction time 0 h",50.2
same,Decomposition efficiency of glycitin family in soymilk,"pH2.3, heat treatment of enzyme no, reaction time 1 h",not detected
same,Decomposition efficiency of glycitin family in soymilk,"pH2.3, heat treatment of enzyme no, reaction time 3 h",not detected
same,Decomposition efficiency of glycitin family in soymilk,"pH2.3, heat treatment of enzyme no, reaction time 6 h",not detected
same,Decomposition efficiency of glycitin family in soymilk,"pH2.3, heat treatment of enzyme yes, reaction time 6 h",51.7
same,Decomposition efficiency of glycitin family in defatted soybean,"pH2.6, heat treatment of enzyme: no, reaction time 0 h",not detected
same,Decomposition efficiency of glycitin family in defatted soybean,"pH2.6, heat treatment of enzyme: no, reaction time 1 h",not detected
same,Decomposition efficiency of glycitin family in defatted soybean,"pH2.6, heat treatment of enzyme: no, reaction time 3 h",not detected
same,Decomposition efficiency of glycitin family in defatted soybean,"pH2.6, heat treatment of enzyme: no, reaction time 6 h",not detected
same,Decomposition efficiency of glycitin family in defatted soybean,"pH2.6, heat treatment of enzyme: yes, reaction time 6 h",not detected
same,Decomposition efficiency of glycitin family in concentrated soybean protein,"pH2.7, heat treatment of enzyme: no, reaction time 0 h",52.3%
same,Decomposition efficiency of glycitin family in concentrated soybean protein,"pH2.7, heat treatment of enzyme: no, reaction time 1 h",38.0%
same,Decomposition efficiency of glycitin family in concentrated soybean protein,"pH2.7, heat treatment of enzyme: no, reaction time 3 h",37.2%
same,Decomposition efficiency of glycitin family in concentrated soybean protein,"pH2.7, heat treatment of enzyme: no, reaction time 6 h",33.7%
same,Decomposition efficiency of glycitin family in concentrated soybean protein,"pH2.7, heat treatment of enzyme: yes, reaction time 6 h",52.7%
same,Decomposition efficiency of glycitin family in roasted soy flour,"pH3, heat treatment of enzyme no, reaction time 0 h",56.8
same,Decomposition efficiency of glycitin family in roasted soy flour,"pH3, heat treatment of enzyme no, reaction time 1 h",not detected
same,Decomposition efficiency of glycitin family in roasted soy flour,"pH3, heat treatment of enzyme no, reaction time 3 h",not detected
same,Decomposition efficiency of glycitin family in roasted soy flour,"pH3, heat treatment of enzyme no, reaction time 6 h",not detected
same,Decomposition efficiency of glycitin family in roasted soy flour,"pH3, heat treatment of enzyme yes, reaction time 6 h",55.1
same,Decomposition efficiency of glycitin family in defatted soybean,"pH3.4, heat treatment of enzyme: no, reaction time 0 h",not detected
same,Decomposition efficiency of glycitin family in defatted soybean,"pH3.4, heat treatment of enzyme: no, reaction time 1 h",not detected
same,Decomposition efficiency of glycitin family in defatted soybean,"pH3.4, heat treatment of enzyme: no, reaction time 3 h",not detected
same,Decomposition efficiency of glycitin family in defatted soybean,"pH3.4, heat treatment of enzyme: no, reaction time 6 h",not detected
same,Decomposition efficiency of glycitin family in defatted soybean,"pH3.4, heat treatment of enzyme: yes, reaction time 6 h",not detected
same,Decomposition efficiency of glycitin family in soymilk,"pH3.5, heat treatment of enzyme no, reaction time 0 h",50.2
same,Decomposition efficiency of glycitin family in soymilk,"pH3.5, heat treatment of enzyme no, reaction time 1 h",not detected
same,Decomposition efficiency of glycitin family in soymilk,"pH3.5, heat treatment of enzyme no, reaction time 3 h",not detected
same,Decomposition efficiency of glycitin family in soymilk,"pH3.5, heat treatment of enzyme no, reaction time 6 h",not detected
same,Decomposition efficiency of glycitin family in soymilk,"pH3.5, heat treatment of enzyme yes, reaction time 6 h",54.2
same,Decomposition efficiency of glycitin family in concentrated soybean protein,"pH3.7, heat treatment of enzyme: no, reaction time 0 h",52.4%
same,Decomposition efficiency of glycitin family in concentrated soybean protein,"pH3.7, heat treatment of enzyme: no, reaction time 1 h",not detected
same,Decomposition efficiency of glycitin family in concentrated soybean protein,"pH3.7, heat treatment of enzyme: no, reaction time 3 h",not detected
same,Decomposition efficiency of glycitin family in concentrated soybean protein,"pH3.7, heat treatment of enzyme: no, reaction time 6 h",not detected
same,Decomposition efficiency of glycitin family in concentrated soybean protein,"pH3.7, heat treatment of enzyme: yes, reaction time 6 h",52.4%
same,Decomposition efficiency of glycitin family in roasted soy flour,"pH4, heat treatment of enzyme no, reaction time 0 h",56.6
same,Decomposition efficiency of glycitin family in roasted soy flour,"pH4, heat treatment of enzyme no, reaction time 1 h",not detected
same,Decomposition efficiency of glycitin family in roasted soy flour,"pH4, heat treatment of enzyme no, reaction time 3 h",not detected
same,Decomposition efficiency of glycitin family in roasted soy flour,"pH4, heat treatment of enzyme no, reaction time 6 h",not detected
same,Decomposition efficiency of glycitin family in roasted soy flour,"pH4, heat treatment of enzyme yes, reaction time 6 h",55.1
same,Decomposition efficiency of glycitin family in soymilk,"pH4.8, heat treatment of enzyme no, reaction time 0 h",50.7
same,Decomposition efficiency of glycitin family in soymilk,"pH4.8, heat treatment of enzyme no, reaction time 1 h",not detected
same,Decomposition efficiency of glycitin family in soymilk,"pH4.8, heat treatment of enzyme no, reaction time 3 h",not detected
same,Decomposition efficiency of glycitin family in soymilk,"pH4.8, heat treatment of enzyme no, reaction time 6 h",not detected
same,Decomposition efficiency of glycitin family in soymilk,"pH4.8, heat treatment of enzyme yes, reaction time 6 h",54.3
same,Decomposition efficiency of glycitin family in defatted soybean,"pH4.8, heat treatment of enzyme: no, reaction time 0 h",not detected
same,Decomposition efficiency of glycitin family in defatted soybean,"pH4.8, heat treatment of enzyme: no, reaction time 1 h",not detected
same,Decomposition efficiency of glycitin family in defatted soybean,"pH4.8, heat treatment of enzyme: no, reaction time 3 h",not detected
same,Decomposition efficiency of glycitin family in defatted soybean,"pH4.8, heat treatment of enzyme: no, reaction time 6 h",not detected
same,Decomposition efficiency of glycitin family in defatted soybean,"pH4.8, heat treatment of enzyme: yes, reaction time 6 h",not detected
same,Decomposition efficiency of glycitin family in roasted soy flour,"pH5, heat treatment of enzyme no, reaction time 0 h",56.6
same,Decomposition efficiency of glycitin family in roasted soy flour,"pH5, heat treatment of enzyme no, reaction time 1 h",not detected
same,Decomposition efficiency of glycitin family in roasted soy flour,"pH5, heat treatment of enzyme no, reaction time 3 h",not detected
same,Decomposition efficiency of glycitin family in roasted soy flour,"pH5, heat treatment of enzyme no, reaction time 6 h",not detected
same,Decomposition efficiency of glycitin family in roasted soy flour,"pH5, heat treatment of enzyme yes, reaction time 6 h",55.4
same,Decomposition efficiency of glycitin family in concentrated soybean protein,"pH5.1, heat treatment of enzyme: no, reaction time 0 h",52.4%
same,Decomposition efficiency of glycitin family in concentrated soybean protein,"pH5.1, heat treatment of enzyme: no, reaction time 1 h",4.1%
same,Decomposition efficiency of glycitin family in concentrated soybean protein,"pH5.1, heat treatment of enzyme: no, reaction time 3 h",not detected
same,Decomposition efficiency of glycitin family in concentrated soybean protein,"pH5.1, heat treatment of enzyme: no, reaction time 6 h",not detected
same,Decomposition efficiency of glycitin family in concentrated soybean protein,"pH5.1, heat treatment of enzyme: yes, reaction time 6 h",52.3%
same,Decomposition efficiency of glycitin family in defatted soybean,"pH5.4, heat treatment of enzyme: no, reaction time 0 h",not detected
same,Decomposition efficiency of glycitin family in defatted soybean,"pH5.4, heat treatment of enzyme: no, reaction time 1 h",not detected
same,Decomposition efficiency of glycitin family in defatted soybean,"pH5.4, heat treatment of enzyme: no, reaction time 3 h",not detected
same,Decomposition efficiency of glycitin family in defatted soybean,"pH5.4, heat treatment of enzyme: no, reaction time 6 h",not detected
same,Decomposition efficiency of glycitin family in defatted soybean,"pH5.4, heat treatment of enzyme: yes, reaction time 6 h",not detected
same,Decomposition efficiency of glycitin family in soymilk,"pH6.2, heat treatment of enzyme no, reaction time 0 h",50.7
same,Decomposition efficiency of glycitin family in soymilk,"pH6.2, heat treatment of enzyme no, reaction time 1 h",not detected
same,Decomposition efficiency of glycitin family in soymilk,"pH6.2, heat treatment of enzyme no, reaction time 3 h",not detected
same,Decomposition efficiency of glycitin family in soymilk,"pH6.2, heat treatment of enzyme no, reaction time 6 h",not detected
same,Decomposition efficiency of glycitin family in soymilk,"pH6.2, heat treatment of enzyme yes, reaction time 6 h",54.2
same,Decomposition efficiency of glycitin family in roasted soy flour,"pH6.5, heat treatment of enzyme no, reaction time 0 h",55.9
same,Decomposition efficiency of glycitin family in roasted soy flour,"pH6.5, heat treatment of enzyme no, reaction time 1 h",not detected
same,Decomposition efficiency of glycitin family in roasted soy flour,"pH6.5, heat treatment of enzyme no, reaction time 3 h",not detected
same,Decomposition efficiency of glycitin family in roasted soy flour,"pH6.5, heat treatment of enzyme no, reaction time 6 h",not detected
same,Decomposition efficiency of glycitin family in roasted soy flour,"pH6.5, heat treatment of enzyme yes, reaction time 6 h",54.8
same,Decomposition efficiency of glycitin family in concentrated soybean protein,[1],52.2%
same,Decomposition efficiency of glycitin family in defatted soybean,[1],not detected
same,Decomposition efficiency of glycitin family in concentrated soybean protein,[2],22.6%
same,Decomposition efficiency of glycitin family in defatted soybean,[2],not detected
same,Decomposition efficiency of glycitin family in concentrated soybean protein,[3],6.9%
same,Decomposition efficiency of glycitin family in defatted soybean,[3],not detected
same,Decomposition efficiency of glycitin family in concentrated soybean protein,[4],2.0%
same,Decomposition efficiency of glycitin family in defatted soybean,[4],not detected
same,Decomposition efficiency of glycitin family in concentrated soybean protein,[5],53.3%
same,Decomposition efficiency of glycitin family in defatted soybean,[5],not detected
same,Decomposition efficiency of glycitin family in soymilk,"pH7.2, heat treatment of enzyme no, reaction time 0 h",50.0
same,Decomposition efficiency of glycitin family in soymilk,"pH7.2, heat treatment of enzyme no, reaction time 1 h",not detected
same,Decomposition efficiency of glycitin family in soymilk,"pH7.2, heat treatment of enzyme no, reaction time 3 h",not detected
same,Decomposition efficiency of glycitin family in soymilk,"pH7.2, heat treatment of enzyme no, reaction time 6 h",not detected
same,Decomposition efficiency of glycitin family in soymilk,"pH7.2, heat treatment of enzyme yes, reaction time 6 h",56.9
same,Decomposition efficiency of glycitin family in defatted soybean,"pH7.8, heat treatment of enzyme: no, reaction time 0 h",not detected
same,Decomposition efficiency of glycitin family in defatted soybean,"pH7.8, heat treatment of enzyme: no, reaction time 1 h",not detected
same,Decomposition efficiency of glycitin family in defatted soybean,"pH7.8, heat treatment of enzyme: no, reaction time 3 h",not detected
same,Decomposition efficiency of glycitin family in defatted soybean,"pH7.8, heat treatment of enzyme: no, reaction time 6 h",not detected
same,Decomposition efficiency of glycitin family in defatted soybean,"pH7.8, heat treatment of enzyme: yes, reaction time 6 h",not detected
same,Decomposition efficiency of glycitin family in roasted soy flour,"pH8.5, heat treatment of enzyme no, reaction time 0 h",59.4
same,Decomposition efficiency of glycitin family in roasted soy flour,"pH8.5, heat treatment of enzyme no, reaction time 1 h",39.4
same,Decomposition efficiency of glycitin family in roasted soy flour,"pH8.5, heat treatment of enzyme no, reaction time 3 h",29.3
same,Decomposition efficiency of glycitin family in roasted soy flour,"pH8.5, heat treatment of enzyme no, reaction time 6 h",22.4
same,Decomposition efficiency of glycitin family in roasted soy flour,"pH8.5, heat treatment of enzyme yes, reaction time 6 h",59.2
same,Decomposition efficiency of glycitin family in concentrated soybean protein,"pH8.6, heat treatment of enzyme: no, reaction time 0 h",54.9%
same,Decomposition efficiency of glycitin family in concentrated soybean protein,"pH8.6, heat treatment of enzyme: no, reaction time 1 h",51.6%
same,Decomposition efficiency of glycitin family in concentrated soybean protein,"pH8.6, heat treatment of enzyme: no, reaction time 3 h",45.9%
same,Decomposition efficiency of glycitin family in concentrated soybean protein,"pH8.6, heat treatment of enzyme: no, reaction time 6 h",36.7%
same,Decomposition efficiency of glycitin family in concentrated soybean protein,"pH8.6, heat treatment of enzyme: yes, reaction time 6 h",56.8%
same,Decomposition efficiency of glycitin family in soymilk,"pH11.6, heat treatment of enzyme no, reaction time 0 h",54.3
same,Decomposition efficiency of glycitin family in soymilk,"pH11.6, heat treatment of enzyme no, reaction time 1 h",not detected
same,Decomposition efficiency of glycitin family in soymilk,"pH11.6, heat treatment of enzyme no, reaction time 3 h",not detected
same,Decomposition efficiency of glycitin family in soymilk,"pH11.6, heat treatment of enzyme no, reaction time 6 h",not detected
same,Decomposition efficiency of glycitin family in soymilk,"pH11.6, heat treatment of enzyme yes, reaction time 6 h",59.7

# From patent US7118895B2, “Process for producing aglycon by using diglycosidase and flavor-improved food containing the aglycon and converting agent to be used in the process” (Amano Enzyme Inc., priority 2000, dated 2006)
